Test results published in patent US11331368B2, “Angiotensin receptor agonists and uses thereof” (Monash University, priority 2017, dated 2022).

Experiments:
[1] = tested on: human cardiac fibroblasts; assay: TGF-β1-induced collagen production in human cardiac fibroblasts (Western blot); assay type: cell-based; conditions: co-treated with TGF-β1 for 3 days, increasing concentrations up to 1 μM
Procedure: D) Human cardiac fibroblasts (HCFs) were treated with TGFβ1 to induce a pro-fibrotic phenotype state in cell culture, exemplified by increased collagen-1 production, measured by Western blot. HCFs were treated with TGFβ1 alone, or in the presence of an AT2R agonist for 3 days, and the ability of AT2R agonists to inhibit TGFβ1-induced collagen-1 production was measured.
Commercially available human cardiac fibroblasts (HCF, Catalog #6300, Sciencell, Calif., USA) were grown in T75 flask maintained in an incubator at 37° C., 5% CO2. Complete media composition: M199 media (#11150-059, life technologies)+10% FBS (#10437-028, life technologies)+1% Fibroblast Growth Supplement-2 (#2382, ScienCell)+1% penicillin/streptomycin 10,000 U/ml antibiotics (#15140-122, Life Technologies). Fresh complete media was replenished every alternate day until culture reached 70% confluence in which media is replenished daily until it reached approximately 90% confluence in order to passage/subculture. To subculture, media was discarded and culture was rinsed with warm PBS. After which, culture was detached using warm 0.05% Trypsin+EDTA with gentle swirling of flask to make sure cells were not adherent to surface of flask. Trypsin was then neutralized with complete media and suspension was then transferred into a new falcon tube and centrifuged at 1000 rpm for 5 minutes. Supernatant was discarded and pellet of cells were resuspended with 5 ml of complete media, followed by cell counting. For subculturing/passaging, 1 million HCFs are placed into a T75 flask. For Picrosirius Red (PSR) staining or immunofluorescence experiments, 100 k cells were loaded per well in a 24 well plate lined with round coverslips. […]
Once treatment is complete, cells were washed with warm PBS and detached using Accutase (A6964, Sigma), with 5 minutes incubation at 37° C. […] The supernatant (˜20 ul) was transferred to a new tube and protein concentrations were measured using Biorad Lowry protein assay. Protein quantification of respective markers were performed via standard western blot analysis. […]

[2] = molecular target: T1, human AT1R (Homo sapiens, UniProt P30556); assay: Competition radioligand binding (125I-Sar1-Ile8-AngII) in AT1R-transfected HEK-293 cells
T1 construct: expressed in transfected cells
T1 sequence (P30556 1-359): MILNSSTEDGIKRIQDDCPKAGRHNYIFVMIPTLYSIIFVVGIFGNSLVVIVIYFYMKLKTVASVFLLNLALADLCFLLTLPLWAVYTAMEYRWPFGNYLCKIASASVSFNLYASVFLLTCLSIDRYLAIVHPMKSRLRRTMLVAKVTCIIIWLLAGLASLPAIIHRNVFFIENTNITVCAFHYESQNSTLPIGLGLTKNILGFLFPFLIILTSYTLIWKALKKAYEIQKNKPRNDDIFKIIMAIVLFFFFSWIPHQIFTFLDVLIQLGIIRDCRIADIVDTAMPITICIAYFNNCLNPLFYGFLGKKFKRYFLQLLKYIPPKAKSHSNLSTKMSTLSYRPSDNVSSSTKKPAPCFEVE

binding at AT1R (displacement of 125I-Sar1-Ile8-AngII), in words [2]: bind poorly
Substance: Arg-Val-Tyr-Ile-His-β-Pro-Phe [βPro-Ang III]
TGF-β1-induced collagen production [1]: dose-dependent decreases
